# Assay results taken from patent publication US20260356809A1 (The United States of America, as represented by the …, priority 2022, published 2026).
# Where two headings read alike, the source gives them in different places.
# Key:
# [1] = target: T1, human D2L receptor (Homo sapiens, UniProt P14416); experiment: D2R radioligand binding, [3H]N-methylspiperone, HEK293 membranes
# T1 construct: expressed in transfected cells
# [2] = target: T2, human D3 receptor (Homo sapiens, UniProt P35462); experiment: D3R radioligand binding, [3H]N-methylspiperone, HEK293 membranes; conditions: for D2R Ki / D3R Ki: ratio of Ki values
# T2 construct: expressed in transfected cells
# T2 sequence (P35462 whole entry): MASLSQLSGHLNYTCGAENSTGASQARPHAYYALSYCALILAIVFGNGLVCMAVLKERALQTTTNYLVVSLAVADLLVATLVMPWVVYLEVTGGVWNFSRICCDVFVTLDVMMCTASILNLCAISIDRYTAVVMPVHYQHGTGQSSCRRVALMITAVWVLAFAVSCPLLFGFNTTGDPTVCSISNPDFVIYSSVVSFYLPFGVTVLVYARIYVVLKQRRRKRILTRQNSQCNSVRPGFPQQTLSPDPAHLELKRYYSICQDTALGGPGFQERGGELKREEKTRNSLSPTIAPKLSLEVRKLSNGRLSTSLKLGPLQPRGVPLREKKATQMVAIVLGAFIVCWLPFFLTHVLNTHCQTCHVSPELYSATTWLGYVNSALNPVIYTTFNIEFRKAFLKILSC
# [3] = target: T3, 5-HT2B (Homo sapiens, UniProt P41595); experiment: 5-HT2B IP-1, agonist; assay type: cell-based; conditions: agonist mode
# T3 sequence (P41595 whole entry, species assumed): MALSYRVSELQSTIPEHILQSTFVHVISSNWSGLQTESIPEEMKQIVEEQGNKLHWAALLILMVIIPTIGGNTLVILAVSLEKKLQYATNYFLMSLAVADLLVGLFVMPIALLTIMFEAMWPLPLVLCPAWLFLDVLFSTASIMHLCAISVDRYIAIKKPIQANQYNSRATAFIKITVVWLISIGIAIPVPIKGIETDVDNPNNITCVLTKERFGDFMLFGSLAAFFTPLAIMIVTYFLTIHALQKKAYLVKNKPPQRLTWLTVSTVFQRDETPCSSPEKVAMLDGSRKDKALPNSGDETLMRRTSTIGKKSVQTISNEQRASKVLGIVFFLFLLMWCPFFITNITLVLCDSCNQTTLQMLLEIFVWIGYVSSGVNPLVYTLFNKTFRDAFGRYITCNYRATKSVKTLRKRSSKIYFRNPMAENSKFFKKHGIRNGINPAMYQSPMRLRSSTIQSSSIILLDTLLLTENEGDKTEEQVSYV
# [4] = target: T3, 5-HT2B; experiment: 5-HT2B IP-1, antagonist; assay type: cell-based
# [5] = target: T4, D2LR (Homo sapiens, UniProt P14416); assay type: cell-based; conditions: miniG recruitment assay
# T4 construct: expressed in transfected cells; host or cells: HEK 293T, transient
# T4 sequence (P14416 whole entry): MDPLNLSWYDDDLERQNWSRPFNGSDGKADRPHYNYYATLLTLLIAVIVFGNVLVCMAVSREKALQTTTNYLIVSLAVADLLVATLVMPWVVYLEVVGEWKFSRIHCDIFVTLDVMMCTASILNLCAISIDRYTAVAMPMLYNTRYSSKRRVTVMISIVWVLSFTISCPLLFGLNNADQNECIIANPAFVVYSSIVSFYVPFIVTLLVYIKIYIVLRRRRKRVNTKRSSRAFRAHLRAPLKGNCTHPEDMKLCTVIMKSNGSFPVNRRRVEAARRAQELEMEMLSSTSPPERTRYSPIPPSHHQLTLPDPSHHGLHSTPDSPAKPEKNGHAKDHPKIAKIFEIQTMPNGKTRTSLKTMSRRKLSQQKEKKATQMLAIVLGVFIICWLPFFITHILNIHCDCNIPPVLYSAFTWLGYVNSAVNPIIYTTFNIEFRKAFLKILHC
# [6] = tested on: cocaine self-administration in rats; conditions: general knowledge statement; cited from earlier work
# [7] = [3H]N-methylspiperone, mean ± SEM of at least three experiments, read-out: D3R Ki ± SEM
# T1 sequence (P14416 whole entry): as above
Compound,Ki [2] [nM],D2R Ki / D3R Ki ([2]; [3H]N-methylspiperone),Ki ([1]; read-out: D2R Ki ± SEM) [nM],"Ki [2, 7] [nM]",also measured
"COc1ccccc1N1CCN(CC[C@H]2CC[C@H](NC(=O)N(C)C)CC2)CC1 [Compound 6f, 3-(trans-4-(2-(4-(2-Methoxyphenyl)piperazin-1-yl)ethyl)cyclohexyl)-1,1-dimethylurea]",1.01 ± 0.32,6.0,–,–,Ki [1]: 6.07 ± 2.32 nM
"CN(C)C(=O)N[C@H]1CC[C@H](CCN2CCN(c3ccc(Cl)cc3)CC2)CC1 [Compound 6g, 3-(trans-4-(2-(4-(4-Chlorophenyl)piperazin-1-yl)ethyl)cyclohexyl)-1,1-dimethylurea]",33.8 ± 0.8,–,–,–,Ki [1]: 337 ± 24 nM
"CN(C)C(=O)N[C@H]1CC[C@H](CCN2CCN(c3ncccn3)CC2)CC1 [Compound 6h, 1,1-Dimethyl-3-(trans-4-(2-(4-(pyrimidin-2-yl)piperazin-1-yl)ethyl)cyclohexyl)urea]",600 ± 136,5.7,–,–,Ki [1]: 3440 ± 464 nM
"CN(C)C(=O)N[C@H]1CC[C@H](CCN2CCN(c3nsc4ccccc34)CC2)CC1 [Compound 6i, 3-(trans-4-(2-(4-(Benzo[d]isothiazol-3-yl)piperazin-1-yl)ethyl)cyclohexyl)-1,1-dimethylurea]",4.17 ± 0.33,1.1,–,–,Ki [1]: 4.43 ± 0.38 nM
"CN(C)C(=O)N[C@H]1CC[C@H](CCN2CCC(c3noc4cc(F)ccc34)CC2)CC1 [Compound 6j, 3-(trans-4-(2-(4-(6-Fluorobenzo[d]isoxazol-3-yl)piperidin-1-yl)ethyl)cyclohexyl)-1,1-dimethylurea]",5.37 ± 0.72,1.0,–,–,Ki [1]: 5.26 ± 1.56 nM
"CN(C)C(=O)N[C@H]1CC[C@H](CCN2CCN(c3ccc4oc(C(N)=O)cc4c3)CC2)CC1 [Compound 6k, 5-(4-(2-(trans-4-(3,3-Dimethylureido)cyclohexyl)ethyl)piperazin-1-yl)benzofuran-2-carboxamide]",1460 ± 270,41.9,–,–,Ki [1]: 61100 ± 35100 nM
"CCc1cccc(N2CCN(CC[C@H]3CC[C@H](NC(=O)c4cc5ccccc5[nH]4)CC3)CC2)c1Cl [Compound 10b, N-(trans-4-(2-(4-(2-Chloro-3-ethylphenyl)piperazin-1-yl)ethyl)cyclohexyl)indole-2-carboxamide]",–,–,7.8 ± 1.9,–,–
COCCC(=O)N[C@H]1CC[C@H](CCN2CCN(c3cccc(C(F)(F)F)n3)CC2)CC1 [Compound 13d],–,–,–,–,5-HT2B IP-1 Emax ± SEM [3]: 6.66 ± 0.91%; EC50 ([3]; read-out: 5-HT2B IP-1 EC50 ± SEM): 37 ± 10 nM; 5-HT2B IP-1 Emax ± SEM [4]: 95.6 ± 2.0%; IC50 ([4]; read-out: 5-HT2B IP-1 IC50 ± SEM): 460 ± 100 nM
"COC(=O)N[C@H]1CC[C@H](CCN2CCN(c3cccc(Cl)c3Cl)CC2)CC1 [Compound 14a, Methyl (trans-4-(2-(4-(2,3-dichlorophenyl)piperazin-1-yl)ethyl)cyclohexyl)carbamate]",–,11.5,3.72 ± 0.02,0.323 ± 0.075,–
"CCOC(=O)N[C@H]1CC[C@H](CCN2CCN(c3cccc(Cl)c3Cl)CC2)CC1 [Compound 14b, Ethyl (trans-4-(2-(4-(2,3-dichlorophenyl)piperazin-1-yl)ethyl)cyclohexyl)carbamate]",–,–,8.4 ± 2.43,0.965 ± 0.129,–
"CCCOC(=O)N[C@H]1CC[C@H](CCN2CCN(c3cccc(Cl)c3Cl)CC2)CC1 [Compound 14c, Propyl (trans-4-(2-(4-(2,3-dichlorophenyl)piperazin-1-yl)ethyl)cyclohexyl)carbamate]",–,14.4,25 ± 2.1,1.74 ± 0.17,–
"COCC(=O)N[C@H]1CC[C@H](CCN2CCN(c3cccc(Cl)c3Cl)CC2)CC1 [Compound 14d, N-(trans-4-(2-(4-(2,3-Dichlorophenyl)piperazin-1-yl)ethyl)cyclohexyl)-2-methoxyacetamide]",≤ 1,28.6,7.67 ± 0.69,0.268 ± 0.065,–
"CCOCC(=O)N[C@H]1CC[C@H](CCN2CCN(c3cccc(Cl)c3Cl)CC2)CC1 [Compound 14e, N-(trans-4-(2-(4-(2,3-Dichlorophenyl)piperazin-1-yl)ethyl)cyclohexyl)-2-ethoxyacetamide]",≤ 1,–,41.3 ± 3.9,1.06 ± 0.32,–
"COCCCC(=O)N[C@H]1CC[C@H](CCN2CCN(c3cccc(Cl)c3Cl)CC2)CC1 [Compound 14f, N-(trans-4-(2-(4-(2,3-Dichlorophenyl)piperazin-1-yl)ethyl)cyclohexyl)-4-methoxybutanamide]",–,18.9,21.7 ± 3.8,1.15 ± 0.29,–
"CN(C)CC(=O)N[C@H]1CC[C@H](CCN2CCN(c3cccc(Cl)c3Cl)CC2)CC1 [Compound 14g, N-(trans-4-(2-(4-(2,3-dichlorophenyl)piperazin-1-yl)ethyl)cyclohexyl)-2-(dimethylamino)acetamide]",–,–,3.72 ± 0.46,0.398 ± 0.084,–
"CCC(=O)N[C@H]1CC[C@H](CCN2CCN(c3cccc(Cl)c3Cl)CC2)CC1 [Compound 14i, N-(trans-4-(2-(4-(2,3-Dichlorophenyl)piperazin-1-yl)ethyl)cyclohexyl)propionamide]",–,13.6,6.06 ± 1.07,0.447 ± 0.119,–
"CCCC(=O)N[C@H]1CC[C@H](CCN2CCN(c3cccc(Cl)c3Cl)CC2)CC1 [Compound 14j, N-(trans-4-(2-(4-(2,3-Dichlorophenyl)piperazin-1-yl)ethyl)cyclohexyl)butyramide]",–,29.3,25.6 ± 5.7,0.875 ± 0.178,–
"CCCCC(=O)N[C@H]1CC[C@H](CCN2CCN(c3cccc(Cl)c3Cl)CC2)CC1 [Compound 14k, N-(trans-4-(2-(4-(2,3-Dichlorophenyl)piperazin-1-yl)ethyl)cyclohexyl)pentanamide]",–,21.7,51.5 ± 18.6,2.37 ± 0.6,–
"O=C1OCCCN1[C@H]1CC[C@H](CCN2CCN(c3cccc(Cl)c3Cl)CC2)CC1 [Compound 34b, 3-(trans-4-(2-(4-(2,3-Dichlorophenyl)piperazin-1-yl)ethyl)cyclohexyl)-1,3-oxazinan-2-one]",≤ 1,–,5.46 ± 2.14,0.248 ± 0.101,–
"O=C1NCCN1[C@H]1CC[C@H](CCN2CCN(c3cccc(Cl)c3Cl)CC2)CC1 [Compound 35a, 1-(trans-4-(2-(4-(2,3-Dichlorophenyl)piperazin-1-yl)ethyl)cyclohexyl)imidazolidin-2-one]",–,12.9,5.66 ± 0.89,0.438 ± 0.053,–
"O=C1NCCCN1[C@H]1CC[C@H](CCN2CCN(c3cccc(Cl)c3Cl)CC2)CC1 [Compound 35b, 1-(trans-4-(2-(4-(2,3-Dichlorophenyl)piperazin-1-yl)ethyl)cyclohexyl)tetrahydropyrimidin-2(1H)-one]",–,–,19 ± 4.7,2.97 ± 0.85,–
"O=C1CCCN1[C@H]1CC[C@H](CCN2CCN(c3cccc(Cl)c3Cl)CC2)CC1 [Compound 36a, 1-(trans-4-(2-(4-(2,3-Dichlorophenyl)piperazin-1-yl)ethyl)cyclohexyl)100yrrolidine-2-one]",–,–,4.49 ± 0.78,0.537 ± 0.167,–
"O=C1CCCCN1[C@H]1CC[C@H](CCN2CCN(c3cccc(Cl)c3Cl)CC2)CC1 [Compound 36b, 1-(trans-4-(2-(4-(2,3-Dichlorophenyl)piperazin-1-yl)ethyl)cyclohexyl)piperidin-2-one]",–,–,9.89 ± 2.77,1.74 ± 0.46,–
"NCCc1ccc(O)c(O)c1 [Dopamine, dopamine, reference compound]",–,–,–,–,"D2R activity in words, miniG assay [5]: equivalent maximal responses"
O=c1[nH]c2ccccc2n1C1CCN(CCCC(c2ccc(F)cc2)c2ccc(F)cc2)CC1 [pimozide],–,–,–,–,biphasic effects on cocaine self-administration [6]: biphasic effects
(+)-butaclamol,–,–,–,–,biphasic effects on cocaine self-administration [6]: biphasic effects
